According to patent publication US7732374B2, “Fungicidal mixtures based on prothioconazole and an insecticide” (priority 2002, dated 2010):

System: Sphaerotheca fuliginea
Test: Protective activity against mildew of cucumbers caused by Sphaerotheca fuliginea
Format: in vivo
Conditions: inoculated 20 hours after spraying, evaluated after 7 days
Description: Evaluation was carried out by determining the infected leaf areas in percent. These percentages were converted into efficacies. The efficacy (W) was calculated as follows using Abbot's formula:
[formula] • α corresponds to the fungal infection of the treated plants in % and • β corresponds to the fungal infection of the untreated (control) plants in %
An efficacy of 0 means that the infection level of the treated plants corresponds to that of the untreated control plants; an efficacy of 100 means that the treated plants were not infected.
20 hours after the spray coating had dried on, the plants were inoculated with an aqueous spore suspension of mildew of cucumbers (Sphaerotheca fuliginea). The plants were then cultivated in a greenhouse at 20-24° C. and 60-80% relative atmospheric humidity for 7 days. The extent of mildew development was then determined visually in % infection of the cotyledon area.
The visually determined values for the percentage of infected leaf areas were converted into efficacies in % of the untreated control. An efficacy of 0 means the same degree of infection as the untreated control, an efficacy of 100 means 0% infection.

[1] = 0.015 ppm active compound in the spray liquor
[2] = 0.06 ppm active compound in the spray liquor
[3] = 0.25 ppm active compound in the spray liquor
[4] = 1 ppm active compound in the spray liquor

SMILES	Efficacy in % of the untreated control [1]	Efficacy in % of the untreated control [2]	Efficacy in % of the untreated control [3]	Efficacy in % of the untreated control [4]	Efficacy in % of the untreated control (4 ppm active compound in the spray liquor)
OC(Cc1ccccc1Cl)(Cn1nc[nH]c1=S)C1(Cl)CC1 (stereo not drawn) [Compound I, 2-[2-(1-chlorocyclopropyl)-3-(2-chlorophenyl)-2-hydroxypropyl]-2,4-dihydro-[1,2,4]-triazole-3-thione]	0%	0%	5%	–	–
N#Cc1nn(-c2c(Cl)cc(C(F)(F)F)cc2Cl)c(N)c1[S+]([O-])C(F)(F)F (stereo not drawn) [Compound II, fipronil]	0%	0%	0%	0%	–
CCOP(=S)(OCC)Oc1nc(Cl)c(Cl)cc1Cl [Compound III, chlorpyrifos]	0%	0%	0%	–	–
CN1COCN(Cc2cnc(Cl)s2)/C1=N\[N+](=O)[O-] [Compound IV, thiamethoxam]	0%	0%	0%	0%	0%
